How the values were obtained:
[1] = tested on: normal human primary epidermal keratinocytes; experiment: BrdU incorporation assay, exponentially growing keratinocytes; assay type: cell-based; conditions: increasing EGCG or 0.2 mg/ml GTP
From the text: Analysis of DNA synthesis using the BrdU incorporation method. The BrdU cell proliferation kit was purchased from Oncogene Research Products (Boston, Mass.). […] Experiments were repeated three times in triplicate for each experiment.

OSC-GFP cells and NHEK = experiment: Co-culture of OSC-GFP cells and NHEK, double fluorescence; assay type: cell-based, human; conditions: overlay co-culture, 100 μM EGCG, 24 hour
Procedure: Co-culture and GTPP treatment. Various patterns of co-culture of the tumor/normal cells were achieved by different designs. Examples include:
1. Adjacent co-culture design. OSC-GFP cells (5×10^4) were seeded in the center of a culturing device (8-well chamber-slide, Nagle Nunc International, Naperville, Ill.) through a cloning cylinder (Fisher Scientific/Scienceware, Tapered Design, 4.7×8 mm) in DMEM/F12 medium and allowed to attach for 24 hours. NHEK (10^5) in KGM-2 were then seeded in the area next to the cylinder. After 24 hours, the cylinder was removed and the medium was replaced by a 50/50 mix of KGM-2 and DMEM/F12 and the cells were allowed to grow for another 24 hours prior to treatment (FIG. 21, right).
2. Overlay design, which could be adapted for high throughput screening in 96 well plate. […]
4. Tumor cell migration was monitored by co-culturing OSC-GFP and NHEK in wells of a 24 well plate as indicated in “1”, except the NHEK cell number was doubled. After treatment, tumor cell migration into NHEK territory was recorded by fluorescent microscopy at selected time points. […]
Immunofluorescence and photography. […] Fluorescence was generated by a ZEISS AttoArc 2 source. […]
The total fluorescence intensities of images were quantified using the BIOQUANT NOVA PRIME 6.0 software (Bioquant Co., Nashville, Tenn.). […]

[2] = tested on: normal human primary epidermal keratinocytes; experiment: Immunocytochemistry of differentiation markers in keratinocytes; assay type: cell-based; conditions: 50-100 μM EGCG, 24 hours
Procedure: Immunocytochemistry. Normal human keratinocytes were seeded in 8-well chamber slides (Nagle Nunc International, Naperville, Ill.) 12 hours prior to EGCG treatment. At the end of a 24-hour treatment, the slides were washed with PBS and fixed in a cold 4% paraformaldehyde solution for 10 minutes. […] The primary antibodies, rabbit-anti-human p57 polyclonal antibody C-19, rabbit anti-human keratin 1, and filaggrin antibodies were applied for 1 hour at 37° C. at the dilutions recommended by the manufacturers. The streptavidin detection technique (Biogenex, USA) was used with 3-amino-9-ethylcarbazole as chromogen. Negative control sections consisted of tissues treated with 1% diluted normal goat serum instead of primary antibody. Mayer's hematoxylin was used as a counter-stain.

O=C(O[C@@H]1Cc2c(O)cc(O)cc2O[C@@H]1c1cc(O)c(O)c(O)c1)c1cc(O)c(O)c(O)c1 [EGCG, (−)-epigallocatechin-3-gallate]
BrdU incorporation [1]: slight increase of BrdU incorporation
ratio of fluorescence intensities of rhodamine (red)/FITC (green) (OSC-GFP cells and NHEK): 1.23
differentiation (p57/KIP2, keratin 1, filaggrin) [2]: underwent differentiation in 24 hours
